In brackets after ≈: the same amount, converted by molar mass. Activity calls are given as the source filed them. No cut-off for these calls is given here.
Tests used:
[1] = Inhibition of Escherichia coli UPPS-mediated undecaprenyl pyrophosphate synthesis by continuous spectrophotometric assay
[2] = molecular target: T1, 4,4'-diapophytoene synthase (Staphylococcus aureus, UniProt A9JQL9); experiment: Inhibition of Staphylococcus aureus His6-tagged CrtM expressed in Escherichia coli BL21(DE3) using Farnesyl pyrophosphate as substrate incubated for 30 mins prior to substrate addition by continuous spectrophotometric assay
T1 sequence (A9JQL9 whole entry): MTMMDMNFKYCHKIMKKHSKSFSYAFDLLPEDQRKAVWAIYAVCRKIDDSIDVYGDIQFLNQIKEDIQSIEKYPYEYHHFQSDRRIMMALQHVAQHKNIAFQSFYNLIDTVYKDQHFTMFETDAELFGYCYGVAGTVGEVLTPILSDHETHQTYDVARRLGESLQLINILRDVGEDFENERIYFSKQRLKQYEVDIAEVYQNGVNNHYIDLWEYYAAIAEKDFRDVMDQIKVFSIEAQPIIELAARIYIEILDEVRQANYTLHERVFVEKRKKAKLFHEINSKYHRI

[3] = Inhibition of Staphylococcus aureus UPPS-mediated undecaprenyl pyrophosphate synthesis by continuous spectrophotometric assay
[4] = molecular target: T2, Farnesyl pyrophosphate synthase (Homo sapiens) (UniProt P14324); experiment: Inhibition of FPPS
T2 sequence (whole entry): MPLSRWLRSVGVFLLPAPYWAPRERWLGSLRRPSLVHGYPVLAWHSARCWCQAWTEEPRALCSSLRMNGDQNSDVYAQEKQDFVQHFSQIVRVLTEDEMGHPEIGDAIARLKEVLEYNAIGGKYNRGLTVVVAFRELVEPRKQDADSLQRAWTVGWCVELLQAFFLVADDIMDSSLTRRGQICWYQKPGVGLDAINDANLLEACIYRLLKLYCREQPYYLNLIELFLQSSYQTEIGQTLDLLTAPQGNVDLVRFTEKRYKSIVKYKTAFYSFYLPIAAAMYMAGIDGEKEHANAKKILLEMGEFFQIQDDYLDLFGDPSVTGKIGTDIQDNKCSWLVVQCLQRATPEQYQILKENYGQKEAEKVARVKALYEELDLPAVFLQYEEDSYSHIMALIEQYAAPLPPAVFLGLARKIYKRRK

[5] = molecular target: T1, 4,4'-diapophytoene synthase; experiment: Inhibition of Staphylococcus aureus isolate WT CrtM-mediated staphyloxanthin synthesis after 72 hrs by spectrophotometry
[6] = test system: Staphylococcus aureus; experiment: Antibacterial activity against methicillin-resistant Staphylococcus aureus USA300; assay type: functional
[7] = test system: Escherichia coli; experiment: Antibacterial activity against Escherichia coli DH5alpha; assay type: functional, organism-based; conditions: DH5[alpha]
[8] = test system: Bacillus anthracis; experiment: Antibacterial activity against Bacillus anthracis str. Sterne; assay type: functional
[9] = test system: Listeria monocytogenes; experiment: Antibacterial activity against Listeria monocytogenes; assay type: functional
[10] = test system: Enterococcus faecium; experiment: Antibacterial activity against Enterococcus faecium U503; assay type: functional
[11] = Antibacterial activity against Streptococcus pyogenes M1; assay type: functional, Streptococcus pyogenes serotype M1
[12] = test system: MCF7; experiment: Cytotoxicity against human MCF7 cells; assay type: cell-based
[13] = test system: Escherichia coli; experiment: Antibacterial activity against Escherichia coli K12; assay type: functional, organism-based; conditions: K-12

Structure (SMILES)	IC50 [1] [nM]	IC50 [2] [nM]	IC50 [3] [nM]	inhibition [4]	Ki [2] [nM]	IC50 [5] [nM]	MIC90 [6] [µg/mL]	Activity [7]	MIC90 [8] [µg/mL]	MIC90 [9] [µg/mL]	MIC90 [10] [µg/mL]	MIC90 [11] [µg/mL]	IC50 [12] [nM]	Activity [13]	Ki [1] [nM]
O=P(O)(O)C(O)(Cc1cccc(-c2cccc3c2oc2ccccc23)c1)P(=O)(O)O	300	–	–	–	–	–	–	–	–	–	–	–	–	–	–
CCCCCCCCCCOc1cccc(Cn2ccc(O)c(C(=O)O)c2=O)c1	> 300000	> 300000	> 300000	inactive	–	–	–	–	–	–	–	–	–	–	–
O=C(/C=C(\O)C(=O)O)NCCCc1cccc(Oc2ccccc2)c1	2200	24000	–	inactive	250	4000	–	–	–	–	–	–	–	–	–
CCCCCCOc1cccc(Cn2ccc(O)c(C(=O)O)c2=O)c1	27000	45300	–	inactive	450	33000	–	–	–	–	–	–	–	–	–
CCCCCCOc1cccc(CCCNC(=O)/C=C(\O)C(=O)O)c1	560	> 300000	750	inactive	–	–	–	–	–	–	–	–	–	–	–
CCCCCCCCOc1ccc(C(=O)/C=C(\O)C(=O)O)cc1	500	> 300000	2000	inactive	–	–	0.25 (≈ 0.78 µM)	inactive	0.5 (≈ 1.56 µM)	4 (≈ 12.5 µM)	4 (≈ 12.5 µM)	1 (≈ 3.12 µM)	30000	inactive	–
O=C(/C=C(\O)C(=O)O)NCCCc1cccc(-c2ccccc2)c1	240	24000	1800	inactive	–	–	–	–	–	–	–	–	–	–	120
CCCCCCCCCCOc1cccc(C(=O)/C=C(\O)C(=O)O)c1	1900	67000	730	inactive	–	–	–	inactive	0.5 (≈ 1.43 µM)	4 (≈ 11.5 µM)	4 (≈ 11.5 µM)	1 (≈ 2.87 µM)	30000	inactive	–
O=C(CP(=O)(O)O)NCCCc1cccc(Oc2ccccc2)c1	–	–	–	inactive	–	–	–	–	–	–	–	–	–	–	–

Reference: ChEMBL document CHEMBL2062486, “HIV-1 Integrase Inhibitor-Inspired Antibacterials Targeting Isoprenoid Biosynthesis” (ACS Med Chem Lett, 2012)
